# Measurements published in ChEMBL document CHEMBL4431301, “The Medicinal Chemistry of Dengue Virus” (J Med Chem, 2016).
# Where a SMILES comes first, the peptide text is derived from it. [ ]: non-standard residue; d: D form. The star is where a group is joined. Nle = CCCC[C@H](N)C(=O)O; Bz = O=C(c1ccccc1)*
# How the values were obtained:
# dengue virus type 2 [1] = test: Antiviral activity against Dengue virus 2 NGC infected in BHK21 cells after 48 hrs by plaque reduction assay; type: functional, organism-based; conditions: BHK-21, 48 h
# dengue virus type 2 [2] = test: Antiviral activity against Dengue virus 2 NGC infected in human K562 cells assessed as inhibition in live viral replication after 48 hrs by plaque assay; type: functional, organism-based; conditions: K562, 48 h
# Genome polyprotein [3] = target: T1, Genome polyprotein (dengue virus type 2, UniProt P29990); test: Inhibition of Dengue virus 2 NS2B-NS3 protease using Abz-Nle-Lys-Arg-Arg-Ser-3-(NO2)Tyr as substrate preincubated for 15 mins followed by addition of substrate measured after 15 mins by fluorescence assay
# dengue virus type 1 = test: Antiviral activity against Dengue virus 1 Hawaii infected in african green monkey Vero cells assessed as inhibition of viral yield after 48 hrs; type: functional, organism-based
# dengue virus type 3 = test: Antiviral activity against Dengue virus 3 H87 infected in african green monkey Vero cells assessed as inhibition of viral yield after 48 hrs; type: functional, organism-based
# dengue virus type 2 [4] = test: Antiviral activity against Dengue virus 2 NGC infected in african green monkey Vero cells assessed as inhibition of viral yield after 48 hrs; type: functional, organism-based
# Junin virus = test: Antiviral activity against Junin virus IV4454 infected in african green monkey Vero cells assessed as inhibition of viral yield after 48 hrs; type: functional, organism-based; conditions: Mammarenavirus juninense
# dengue virus type 4 = test: Antiviral activity against Dengue virus 4 8124 infected in african green monkey Vero cells assessed as inhibition of viral yield after 48 hrs; type: functional, organism-based; conditions: Dengue virus, 8124, Vero
# [5] = Cytotoxicity against human HuH7 cells assessed as cell viability after 48 hrs by CellTiter Glo assay; type: cell-based, Huh-7
# dengue virus type 2 [6] = test: Antiviral activity against Dengue virus 2 NGC infected in human HuH7 cells assessed as reduction in virus replication after 48 hrs by renilla luciferase reporter gene assay; type: functional, organism-based; conditions: Huh-7, 48 h
# dengue virus type 2 [7] = test: Antiviral activity against Dengue virus 2 NGC infected in human HuH7 cells assessed as reduction in viral titer after 24 hrs; type: functional; conditions: Huh-7, 24 h
# dengue virus type 2 [8] = test: Antiviral activity against Dengue virus 2 infected in BHK21 cells assessed after 3 to 5 days by crystal violet staining based plaque assay; type: functional, organism-based; conditions: BHK-21
# dengue virus type 2 [9] = test: Antiviral activity against Dengue virus 2 assessed as inhibition of viral replication; type: functional, organism-based
# dengue virus type 2 [10] = test: Antiviral activity against Dengue virus 2 16681 infected in human HuH7 cells after 72 hrs by indirect immunofluorescent flow cytometry; type: functional, organism-based; conditions: Dengue virus, 16681, Huh-7, 72 h
# dengue virus type 2 [11] = test: Antiviral activity against Dengue virus 2 NGC infected in human A549 cells assessed as reduction in virus replication after 48 hrs by renilla luciferase reporter gene assay; type: functional, organism-based; conditions: A549, 48 h
# Genome polyprotein [12] = target: T1, Genome polyprotein; test: Inhibition of recombinant Dengue virus type 2 NS2B-NS3 protease expressed in Escherichia coli C41 cells using GRR-AMC as substrate after 15 mins by fluorescence assay
# dengue virus type 2 [13] = test: Antiviral activity against Dengue virus 2 NGC infected in BHK21 cells after 24 hrs by plaque reduction assay; type: functional; conditions: BHK-21, 24 h
# [14] = Cytotoxicity against BHK21 cells after 1 hr by alamar blue assay; type: cell-based, Mesocricetus auratus, BHK-21; conditions: hamster
# T1 sequence (P29990 1346-1475 limits assumed): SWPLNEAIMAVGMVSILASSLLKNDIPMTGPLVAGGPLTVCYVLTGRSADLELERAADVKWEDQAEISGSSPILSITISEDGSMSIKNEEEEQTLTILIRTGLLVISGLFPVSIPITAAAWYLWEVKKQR
# T1 sequence (P29990 1476-2093 limits assumed): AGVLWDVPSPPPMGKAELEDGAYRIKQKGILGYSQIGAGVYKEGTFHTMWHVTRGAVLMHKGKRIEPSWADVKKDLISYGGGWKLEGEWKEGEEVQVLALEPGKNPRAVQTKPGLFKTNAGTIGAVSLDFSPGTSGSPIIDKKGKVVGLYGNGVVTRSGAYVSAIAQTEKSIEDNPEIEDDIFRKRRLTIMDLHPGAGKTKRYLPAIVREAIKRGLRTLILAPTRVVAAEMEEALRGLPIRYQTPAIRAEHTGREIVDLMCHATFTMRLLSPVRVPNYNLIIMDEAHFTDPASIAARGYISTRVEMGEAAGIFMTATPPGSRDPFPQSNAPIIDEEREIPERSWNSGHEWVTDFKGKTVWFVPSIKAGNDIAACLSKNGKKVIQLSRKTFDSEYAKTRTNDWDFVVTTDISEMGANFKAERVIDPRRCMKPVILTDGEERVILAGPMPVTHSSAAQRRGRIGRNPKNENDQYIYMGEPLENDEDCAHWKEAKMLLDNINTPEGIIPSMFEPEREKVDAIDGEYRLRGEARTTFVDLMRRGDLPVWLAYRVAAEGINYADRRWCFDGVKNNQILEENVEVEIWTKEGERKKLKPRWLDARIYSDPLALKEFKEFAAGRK
smiles,measurement,setting,value
OC[C@@H]1[C@@H](O)[C@H](O)[C@@H](O)CN1CCCCCC1(O)CCCCC1,EC50,dengue virus type 2 [1],2 µM
CC(=C\C(=O)O)/C=C(\C)C[C@H](C)CCCC[C@H]1OC(=O)[C@@H]1CO [ANTIBIOTIC 1233A],EC50,dengue virus type 2 [2],4.5 µM
CCCC[C@H](NC(=O)[C@H](CCCCN)NC(=O)[C@H](CCCNC(=N)N)NC(=O)c1ccccc1)C(N)=O (Bz-Arg-Lys-[Nle]-NH2),Ki,Genome polyprotein [3],15.6 µM
C=CCn1c2cc(Cl)ccc2c(=O)c2cccc(OC)c21,EC50,dengue virus type 1,8.3 to 15.9 µM
same,EC50,dengue virus type 3,8.3 to 15.9 µM
same,EC50,dengue virus type 2 [4],2.5 to 5.5 µM
same,EC50,Junin virus,2.5 to 5.5 µM
same,EC50,dengue virus type 4,19.9 µM
C=CCn1c2ccccc2c(=O)c2ccc(Cl)cc21,EC50,dengue virus type 1,8.3 to 15.9 µM
same,EC50,dengue virus type 3,8.3 to 15.9 µM
same,EC50,dengue virus type 2 [4],2.5 to 5.5 µM
same,EC50,Junin virus,2.5 to 5.5 µM
CCCC[C@H](NC(=O)[C@H](CCCCN)NC(=O)[C@H](CCCNC(=N)N)NC(=O)c1ccc(/C=C(\C#N)C(=O)NC2CC2)cc1)C(N)=O,Ki,Genome polyprotein [3],4.9 µM
C=C1C(=O)OC(CCCCCCCC)C1C(=O)O (configuration not stated),CC50 at 48 h,[5],> 100 µM
same,EC50,dengue virus type 2 [6],5.7 µM
Cc1nc(Nc2ncc(C(=O)Nc3c(C)cccc3Cl)s2)cc(N2CCN(CCO)CC2)n1 [DASATINIB],EC90,dengue virus type 2 [7],4.7 µM
CCN(CC)CCCC(C)Nc1ccnc2cc(Cl)ccc12 (configuration not stated) [CHLOROQUINE],EC90,dengue virus type 2 [8],5.04 µM
OC[C@@H]1[C@@H](O)[C@H](O)[C@@H](O)CN1CCCCC1CCCCC1,EC50,dengue virus type 2 [1],1.5 µM
CC(C)(C)OC(=O)NC1C(=O)NC2Cc3ccc(c(Cl)c3)Oc3cc4cc(c3O)Oc3ccc(cc3Cl)C(O)C3NC(=O)C(NC(=O)C4NC(=O)C(NC2=O)c2cc(O)cc(c2)Oc2cc1ccc2O)c1ccc(O)c(c1)-c1c(O)cc(O)cc1C(C(=O)NC12CC4CC(CC(C4)C1)C2)NC3=O (configuration not stated),EC50,dengue virus type 2 [9],6.9 µM
COc1c(C)c2c(c(O)c1C/C=C(\C)CCC(=O)O)C(=O)OC2 [MYCOPHENOLIC ACID],EC50,dengue virus type 2 [10],1.9 µM
CC(C)n1c(/C=C/C(O)CC(O)CC(=O)O)c(-c2ccc(F)cc2)c2ccccc21 (configuration not stated) [FLUVASTATIN],EC50,dengue virus type 2 [11],1.82 to 8.75 µM
CC(=O)N[C@@H](CCCNC(=N)N)C(=O)N[C@H](C(=O)N[C@@H](CO)C(=O)N[C@@H](CCCCN)C(=O)N[C@@H](CCCCN)C(=O)N[C@@H](CCCNC(=N)N)C(N)=O)[C@@H](C)O (Ac-RTSKKR-NH2),Ki,Genome polyprotein [12],12 µM
CCN(CC)CCO[C@H]1CC[C@@]2(C)C(=CC[C@@H]3[C@@H]2CC[C@]2(C)C(=O)CC[C@@H]32)C1,CC50 at 48 h,[5],34.4 µM
same,EC50,dengue virus type 2 [6],2.9 µM
N#C/C(=N\Nc1ccc(C(F)(F)F)cc1)C(=O)c1ccco1,IC90,dengue virus type 2 [13],1.5 µM
same,CC50 at 1 h,[14],84.5 µM
CCCCCCCCCN1C[C@H](O)[C@@H](O)[C@H](O)[C@H]1CO,EC50,dengue virus type 2 [1],1 µM
